System: honeybees (Apis mellifera)
Assay type: in vivo
Settings: after fall inspection
Source text: Treatment Study: This study provides disclosure relating to the potential effectiveness of using phages, such as PL phages, when treating healthy beehives that are not at risk for AFB.
This combined not-at-risk preventative and safety treatment study using PL phages occurred when 96 beehives were observed and assigned to one of three groups to either be control hives, hives treated preventative PL phages, or hives treated with preventative Tylan antibiotic.
Study Design: Test animals—A total of 96 colonies (hives) of honeybees (Apis mellifera) were previously established in two near-by apiaries. Each of the colonies had to meet the following four criteria: a viable laying queen, contain approximately 40,000 or more adult worker bees, have uncapped brood, and have no visible signs of American Foulbrood. All 96 hives met the criteria and were included in the study.
Route of administration: Oral.
Treatment: PL phage cocktail diluted in sugar water.
Objective and design: The objective was to determine the comparative health of beehives left without a treatment to hives prophylactically treated with PL phages or Tylan antibiotic for the prevention of AFB in a longitudinal study.
All 96 beehives were inspected in spring and fall using a 3-brood rack approach, wherein observation of three full brood racks constituted a complete inspection to look for AFB. Hives that looked unusual were inspected beyond the 3-brood racks. For each hive observation upon signs of AFB, the colonies were to be rated on a 0-3 scale based on a modification of the method proposed by Hitchcock et al. (1970). Frames were rated as follows:
For each hive inspected, other observations were also noted, such as signs of chalkbrood, European Foulbrood (EFB), apparent mite infestation, queen health (based on laying patterns, etc.), other obvious disorders, and any colony loss.
Results: AFB was not detected in any hive in any group throughout the study. […] For this study, a hive was counted as “diseased” if it had chalkbrood, had European Foulbrood, or struggled to thrive. […]

CC[C@H]1OC(=O)C[C@@H](O)[C@H](C)[C@@H](O[C@@H]2O[C@H](C)[C@@H](O[C@H]3C[C@@](C)(O)[C@@H](O)[C@H](C)O3)[C@H](N(C)C)[C@H]2O)[C@@H](CC=O)C[C@@H](C)C(=O)/C=C/C(C)=C/[C@@H]1CO[C@@H]1O[C@H](C)[C@@H](O)[C@@H](OC)[C@H]1OC [Tylan]
% Healthy Hives (positive health survival rate) (32 hives per group, control 90.6%): 62.5% | Diseased or Dead Hives (of 32 hives per group, control 3): 12 | hives remained healthy (of 32 hives per group, control 29): 20

Reference: US20210138006A1, “Systems, Methods, and Compositions for Treating or Preventing Bacterial Infection and for Reducing or Preventing Bacterial Overpopulation” (BRIGHAM YOUNG UNIVERSITY, priority 2018, published 2021)
